Read-outs that look alike come from different tables or passages of the source. Values belong to the molecule of their own block, whether it stands above or below them.
What was measured:
[1] = molecular target: T1, GRK5 (Homo sapiens, UniProt P34947); assay: Intact protein MS, adduct formation with GRK5; conditions: for Adduct by MS: incubation time needed to observe adduct formation with GRK5: intact mass MS; for covalent adduct formation with GRK5 (in words): intact MS
[2] = molecular target: T1, GRK5; assay: Kinome-wide selectivity panel, GRK5; conditions: read-out: inhibition of GRK5
[3] = molecular target: T1, GRK5; assay: Covalent inhibition kinetic analysis
[4] = Thermodynamic solubility, miniaturized shake-flask; format: physicochemical
[5] = Microsomal stability, HLM; format: in vitro ADME; conditions: human, human liver microsomes
[6] = molecular target: T2, bovine GRK2 (Bos taurus, UniProt P21146); assay: Radiometric GRK2 inhibition assay; format: biochemical
T2 sequence (P21146 1-689): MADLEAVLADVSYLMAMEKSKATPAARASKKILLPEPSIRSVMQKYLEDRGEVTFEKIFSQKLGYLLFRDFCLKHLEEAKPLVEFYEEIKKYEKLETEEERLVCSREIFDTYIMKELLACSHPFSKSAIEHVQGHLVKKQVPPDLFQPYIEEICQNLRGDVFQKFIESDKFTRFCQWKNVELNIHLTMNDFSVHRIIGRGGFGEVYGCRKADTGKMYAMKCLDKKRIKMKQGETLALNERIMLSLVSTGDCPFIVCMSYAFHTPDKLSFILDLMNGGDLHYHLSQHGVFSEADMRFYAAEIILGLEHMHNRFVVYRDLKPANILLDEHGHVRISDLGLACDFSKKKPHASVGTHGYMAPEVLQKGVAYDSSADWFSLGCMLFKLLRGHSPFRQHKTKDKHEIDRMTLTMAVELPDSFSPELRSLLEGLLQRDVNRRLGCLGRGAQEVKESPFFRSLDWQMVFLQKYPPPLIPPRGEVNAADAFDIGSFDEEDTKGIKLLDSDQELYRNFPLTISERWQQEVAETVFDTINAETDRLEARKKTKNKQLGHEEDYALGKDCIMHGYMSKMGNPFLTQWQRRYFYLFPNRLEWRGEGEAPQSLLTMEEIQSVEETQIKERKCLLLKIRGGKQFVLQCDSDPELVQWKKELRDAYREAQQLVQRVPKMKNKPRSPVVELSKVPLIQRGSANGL

[7] = molecular target: PKA (Homo sapiens, UniProt P17612); assay: PKA inhibition assay, ADP-Glo
[8] = cited from earlier work
[9] = system: rodent model of hypertrophy; conditions: cited from earlier work

T1 sequence (P34947 whole entry): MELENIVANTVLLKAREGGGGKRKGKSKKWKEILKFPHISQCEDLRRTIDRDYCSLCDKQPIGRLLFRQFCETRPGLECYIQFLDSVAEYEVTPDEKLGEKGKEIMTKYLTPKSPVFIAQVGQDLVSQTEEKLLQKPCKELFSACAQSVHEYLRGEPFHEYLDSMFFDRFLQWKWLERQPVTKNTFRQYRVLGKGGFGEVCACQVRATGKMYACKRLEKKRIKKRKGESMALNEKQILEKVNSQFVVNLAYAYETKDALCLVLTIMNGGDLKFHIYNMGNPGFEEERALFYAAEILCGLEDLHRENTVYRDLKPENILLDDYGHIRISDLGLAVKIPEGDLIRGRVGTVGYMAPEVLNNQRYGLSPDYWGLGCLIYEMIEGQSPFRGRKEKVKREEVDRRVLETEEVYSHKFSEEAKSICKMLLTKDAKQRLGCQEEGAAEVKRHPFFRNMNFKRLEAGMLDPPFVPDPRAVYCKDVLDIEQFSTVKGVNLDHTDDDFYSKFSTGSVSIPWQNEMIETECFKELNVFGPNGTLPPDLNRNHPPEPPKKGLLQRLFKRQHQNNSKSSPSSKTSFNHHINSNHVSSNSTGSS

Structure (SMILES): C=CCCNC(=O)c1c(C)[nH]c(/C=C2\C(=O)Nc3ccc(C(=O)N[C@H](C)c4ccccc4)cc32)c1C (mixture of isomers) [Compound 5f, (R,Z)-3-((4-(but-3-en-1-ylcarbamoyl)-3,5-dimethyl-1H-pyrrol-2-yl)methylene)-2-oxo-N-(1-phenylethyl)indoline-5-carboxamide]
Adduct by MS: incubation time needed to observe adduct formation with GRK5 ([1]; Table 1): >30 min

Structure (SMILES): CC#CC(=O)Nc1c(C)[nH]c(/C=C2\C(=O)Nc3ccc(C(=O)N[C@H](C)c4ccccc4)cc32)c1C (mixture of isomers) [Compound 9a, (R,Z)-3-((4-(but-2-ynamido)-3,5-dimethyl-1H-pyrrol-2-yl)methylene)-2-oxo-N-(1-phenylethyl)indoline-5-carboxamide]
Adduct by MS: incubation time needed to observe adduct formation with GRK5 ([1]; Table 1): >180 min
covalent adduct formation with GRK5 (in words) ([1]; 30 min incubation): unreactive

Structure (SMILES): Cc1[nH]c(/C=C2\C(=O)Nc3ccc(C(=O)N[C@H](C)c4ccccc4)cc32)c(C)c1NC(=O)CBr (mixture of isomers) [Compound 9g, (R,Z)-3-((4-(2-bromoacetamido)-3,5-dimethyl-1H-pyrrol-2-yl)methylene)-2-oxo-N-(1-phenylethyl)indoline-5-carboxamide]
inhibition at 0.01 µM [2]: 50%
Adduct by MS: percent adduct ([1]; Table 1, 30 min incubation): 70% 30 min
covalent adduct formation with GRK5 (in words) ([1]; 30 min incubation): rapidly reacted with GRK5
kinact [3]: > 0.0167 s⁻¹

Structure (SMILES): NCCCNCCCCNCCCNc1cc2nc(-c3ccccc3Cl)[nH]c(=O)c2cc1F [KR-39038]
bioavailability (in words) [8]: low bioavailability
half-life [8]: < 60 min
effect in a rodent model of hypertrophy (in words) [9]: mild positive effects

Continued, values first:

solubility improvement over 9e [4]: 3.5 fold
Structure (SMILES): Cc1[nH]c(/C=C2\C(=O)Nc3ccc(C(=O)N[C@H](C)c4ccccn4)cc32)c(C)c1NC(=O)CCl (mixture of isomers) [Compound 9l, (R,Z)-3-((4-(2-chloroacetamido)-3,5-dimethyl-1H-pyrrol-2-yl)methylene)-2-oxo-N-(1-(pyridin-2-yl)ethyl)indoline-5-carboxamide]

half-life [5]: 18.9 min
Structure (SMILES): Cc1[nH]c(/C=C2\C(=O)Nc3ccc(C(=O)N[C@H](C)c4ccc(F)cc4)cc32)c(C)c1NC(=O)CCl (stereo in doubt) [Compound 9j, (R,Z)-3-((4-(2-chloroacetamido)-3,5-dimethyl-1H-pyrrol-2-yl)methylene)-N-(1-(4-fluorophenyl)ethyl)-2-oxoindoline-5carboxamide]

IC50 [6]: 23 ± 20 µM
IC50 [7]: > 250 µM
Structure (SMILES): Cc1[nH]c(/C=C2\C(=O)Nc3ccc(C(=O)N[C@@H](c4ccccc4)C(C)C)cc32)c(C)c1NC(=O)CCl (stereo in doubt) [Compound 9s, (R,Z)-3-((4-(2-chloroacetamido)-3,5-dimethyl-1H-pyrrol-2-yl)methylene)-N-(2-methyl-1-phenylpropyl)-2-oxoindoline-5-carboxamide]

IC50 [6]: 190 ± 70 µM
Structure (SMILES): Cc1[nH]c(/C=C2\C(=O)Nc3ccc(C(=O)NC(C)(C)c4ccccc4)cc32)c(C)c1NC(=O)CCl [Compound 9r, (Z)-3-((4-(2-chloroacetamido)-3,5-dimethyl-1H-pyrrol-2-yl)methylene)-2-oxo-N-(2-phenylpropan-2-yl)indoline-5-carboxamide]

— PMC7909074 (Journal of medicinal chemistry, 2021)
